# Source: EPA's ToxRefDB 2
# Columns and labels:
# rabbit = conditions: Prenatal developmental toxicity study, new zealand white, Oral, Gavage/Intubation, dose end: 19 GD
# dog = conditions: Chronic toxicity, beagle, Oral, Feed, dose end: 52 week, group: systemic
# rat [1] = conditions: Prenatal developmental toxicity study, other, Oral, Gavage/Intubation, dose end: 16 GD
# mouse [2] = conditions: Prenatal developmental toxicity study, other, Oral, Gavage/Intubation, dose end: 15 GD
# rat [3] = conditions: Combined chronic toxicity/carcinogenicity, sprague dawley, Oral, Feed, dose end: 104 week, group: systemic
# rat [4] = conditions: Multigenerational reproductive toxicity study, sprague dawley, Oral, Feed, dose end: 2 generation
# mouse [5] = conditions: Combined chronic toxicity/carcinogenicity; cd1; Oral; Feed; dose end: 104 week; group: systemic; systemic / in life observation / body weight / body weight gain + systemic / in life observation / clinical signs / lacrimation + systemic…
# [6] = group: developmental, developmental / developmental malformation / bone / incomplete ossification
# [7] = group: developmental, developmental / developmental malformation / bone / incomplete ossification + developmental / developmental malformation / bone / full …
# [8] = group: maternal, systemic / in life observation / body weight / body weight gain + systemic / in life observation / food consumption / food consumption
# [9] = group: maternal, systemic / in life observation / body weight / body weight gain + systemic / in life observation / food consumption / food consumption + …
# [10] = systemic / pathology microscopic / eye / opacity + systemic / organ weight / kidney / absolute + systemic / organ weight / kidney / relative…
# [11] = group: developmental, developmental / developmental malformation / bone / incomplete ossification + developmental / developmental malformation / bone / manus …
# [12] = group: maternal, systemic / in life observation / food consumption / food consumption
# [13] = group: developmental, developmental / developmental malformation / bone / [other] + developmental / developmental malformation / eye / open eye + developmental / …
# [14] = group: developmental, developmental / developmental malformation / bone / [other] + developmental / developmental malformation / heart / defect a-v septum + …
# [15] = group: maternal, systemic / in life observation / clinical signs / abnormal posture + systemic / in life observation / clinical signs / drooping eyelids (…
# [16] = group: maternal, systemic / in life observation / clinical signs / piloerection + systemic / in life observation / clinical signs / respiration (rales) + …
# [17] = systemic / pathology microscopic / eye / opacity
# [18] = group: offspring, systemic / in life observation / body weight / offspring (pup) weight gain + developmental / offspring survival late / [other] / [other]
# [19] = group: offspring, systemic / in life observation / body weight / offspring (pup) weight gain + developmental / offspring survival late / [other] / [other] + …
# [20] = group: parental, systemic / pathology microscopic / eye / cataract + systemic / in life observation / body weight / body weight gain + systemic / in life …
# [21] = group: parental, systemic / pathology microscopic / eye / cataract + systemic / in life observation / clinical signs / tongue ulcers
compound,measurement,setting,value
[Br-].[Br-].c1cc[n+]2c(c1)-c1cccc[n+]1CC2 [Diquat dibromide],LEL,rabbit; [6],1 mg/kg/day
same,NEL,rabbit; [6],< 1 mg/kg/day
same,LOAEL,rabbit; [7],10 mg/kg/day
same,NOAEL,rabbit; [7],3 mg/kg/day
same,LEL,rabbit; [8],3 mg/kg/day
same,LOAEL,rabbit; [8],3 mg/kg/day
same,NEL,rabbit; [9],1 mg/kg/day
same,NOAEL,rabbit; [9],1 mg/kg/day
same,LOAEL,dog; systemic / pathology microscopic / eye / opacity + systemic / organ weight / epididymis / relative to body weight,2.5 mg/kg/day
same,LEL,dog; systemic / pathology microscopic / eye / opacity + systemic / organ weight / epididymis / relative to body weight + systemic / pathology …,2.5 mg/kg/day
same,NEL,dog; [10],0.5 mg/kg/day
same,NOAEL,dog; [10],0.5 mg/kg/day
same,LEL,rat [1]; [11],40 mg/kg/day
same,LOAEL,rat [1]; [11],40 mg/kg/day
same,NEL,rat [1]; [11],12 mg/kg/day
same,NOAEL,rat [1]; [11],12 mg/kg/day
same,LOAEL,rat [1]; [8],12 mg/kg/day
same,NOAEL,rat [1]; [9],4 mg/kg/day
same,LEL,rat [1]; [12],4 mg/kg/day
same,NEL,rat [1]; [12],< 4 mg/kg/day
same,LOAEL,mouse [2]; [13],2 mg/kg/day
same,NOAEL,mouse [2]; [13],1 mg/kg/day
same,LEL,mouse [2]; [14],1 mg/kg/day
same,NEL,mouse [2]; [14],< 1 mg/kg/day
same,LOAEL,mouse [2]; [15],2 mg/kg/day
same,NOAEL,mouse [2]; [15],1 mg/kg/day
same,LEL,mouse [2]; [16],1 mg/kg/day
same,NEL,mouse [2]; [16],< 1 mg/kg/day
same,LOAEL,rat [3]; systemic / pathology microscopic / eye / cataract,0.58 mg/kg/day
same,NOAEL,rat [3]; systemic / pathology microscopic / eye / cataract + systemic / in life observation / body weight / body weight gain + systemic / pathology …,0.19 mg/kg/day
same,LEL,rat [3]; [17],0.24 mg/kg/day
same,NEL,rat [3]; [17],< 0.24 mg/kg/day
same,NEL,rat [4]; [18],4 mg/kg/day
same,NOAEL,rat [4]; [18],4 mg/kg/day
same,LEL,rat [4]; [19],12 mg/kg/day
same,LOAEL,rat [4]; [19],12 mg/kg/day
same,NEL,rat [4]; [20],0.8 mg/kg/day
same,NOAEL,rat [4]; [20],0.8 mg/kg/day
same,LEL,rat [4]; [21],4 mg/kg/day
same,LOAEL,rat [4]; [21],4 mg/kg/day
same,LEL,mouse [5],12 mg/kg/day
same,LOAEL,mouse [5],12 mg/kg/day
same,NEL,mouse [5],3.56 mg/kg/day
same,NOAEL,mouse [5],3.56 mg/kg/day
